Measured values as given in US12624018B1, “Inhibitors of RIPK2 and medical uses thereof” (Odyssey Therapeutics, Inc., priority 2022, dated 2026).

What follows are molecules tested against T1, RIPK2 enzyme (Homo sapiens, UniProt O43353) (assay: RIPK2 inhibition (ADP-Glo Kinase Assay)). Settings: RIPK2 5 nM, ATP 150 μM, MBP substrate, read-out: RIPK2 IC50.
T1 construct: purchased Carna 09-128
Assay type: biochemical
Protocol: RIPK2 inhibition was measured as follows:
The V9102 ADP-Glo Kinase Assay (including ultrapure ATP, 10 mM) was purchased from Promega. Native swine MBP was used as the substrate for the reaction and was purchased from SignalChem Biotech (catalogue number M42-51N). Assay buffer used for the assay consisted of the following components: MgCl2 (final concentration of 10 mM), Brij-35 (0.01%), DTT (final concentration of 2 mM), BSA (0.05%), EGTA (final concentration of 1 mM), and HEPE (pH 7.5 at final concentration of 50 mM).
Method: In a 384 well plate, 10 nL of test compound was dispensed using Echo550 and mixed with RIPK2 enzyme (final concentration of 5 nM) in assay buffer for 30 minutes at room temperature. […] Then ADP-Glo reagent was added and incubated for 60 min at room temperature. Last, Kinase Detection Reagent was added to the mixture and incubated for 60 min. The resulting luminescent signal was measured with an Envision reader to determine the amount of ADP produced. All plates contained vehicle controls (10 nL DMSO only) as a reference for the high control (0% kinase inhibition), and wells with no RIPK2 enzyme as reference for low control (100% kinase inhibition). Data were analyzed to determine the percent inhibition of ADP production in the presence of test compound using both low and high controls.

T1 sequence (O43353 1-299 limits assumed): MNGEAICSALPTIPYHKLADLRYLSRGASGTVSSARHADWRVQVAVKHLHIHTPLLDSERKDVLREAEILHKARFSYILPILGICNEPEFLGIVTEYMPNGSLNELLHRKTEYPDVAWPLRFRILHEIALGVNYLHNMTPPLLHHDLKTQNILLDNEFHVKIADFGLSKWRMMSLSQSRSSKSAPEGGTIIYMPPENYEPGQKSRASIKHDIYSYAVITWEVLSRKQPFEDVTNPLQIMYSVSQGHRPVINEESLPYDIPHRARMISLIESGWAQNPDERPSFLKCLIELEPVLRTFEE

Compound	IC50 [nM]
Cc1cc(CC(=O)Nc2cnn(C(C)(C)C)c2)ccc1Oc1ccnc2ccc(OCC(C)(C)O)cc12 [Compound 226, N-(1-(tert-butyl)-1H-pyrazol-4-yl)-2-(4-((6-(2-hydroxy-2-methyl-propoxy)quinolin-4-yl)oxy)-3-methylphenyl) acetamide]	< 2.5
Cc1cc(CC(=O)Nc2cnn(C(C)(C)C)c2)ccc1Oc1ccnc2ccc(OCC3CCCN3)cc12 (single isomer, unassigned) [Compound 191, N-(1-(tert-butyl)-1H-pyrazol-4-yl)-2-(3-methyl-4-((6-(pyrrolidin-2-ylmethoxy)quinolin-4-yl)oxy)phenyl) acetamide]	< 2.5
CNC(=O)c1ccc2ncnc(Oc3ccc(CC(=O)Nc4cnn(C(C)(C)C)c4)c(F)c3)c2c1 [Compound 25, 4-(4-(2-((1-(tert-butyl)-1H-pyrazol-4-yl)amino)-2-oxoethyl)-3-fluoro-phenoxy)-N-methyl-quinazoline-6-carboxamide]	4.3
Cc1cc(CC(=O)Nc2cnn(C(C)(C)C)c2)ccc1Oc1ccnc2ccc(N3CC(CO)OC3=O)cc12 (single isomer, unassigned) [Compound 318, N-(1-(tert-butyl)-1H-pyrazol-4-yl)-2-(4-((6-(5-(hydroxymethyl)-2-oxooxazolidin-3-yl)quinolin-4-yl)oxy)-3-methylphenyl) acetamide]	< 2.5
CN(C)C(=O)c1ccc2ncnc(Oc3ccc(CC(=O)Nc4cnn(C(C)(C)C)c4)c(F)c3)c2c1 [Compound 26, 4-(4-(2-((1-(tert-butyl)-1H-pyrazol-4-yl)amino)-2-oxoethyl)-3-fluorophenoxy)-N,N-dimethylquinazoline-6-carboxamide]	21
CC(C)c1ccnc(NC(=O)Cc2ccc(Oc3ncnc4ccc(F)cc34)cc2F)c1 [Compound 22, 2-(2-fluoro-4-((6-fluoroquinazolin-4-yl)oxy)phenyl)-N-(4-isopropylpyridin-2-yl)acetamide]	23.9
Cc1cc(CC(=O)Nc2cnn(C(C)(C)C)c2)c(F)cc1Oc1ccnc2ccc(CN3CCNCC3)cc12 [Compound 419, N-(1-(tert-butyl)-1H-pyrazol-4-yl)-2-(2-fluoro-5-methyl-4-((6-(piperazin-1-ylmethyl)quinolin-4-yl)oxy)phenyl)acetamide]	< 2.5
Cc1cc(CC(=O)Nc2cnn(C(C)(C)C)c2)c(F)cc1Oc1ncnc2ccc(OC3CCNCC3)cc12 [Compound 116]	< 2.5
Cc1cc(CC(=O)Nc2cnn(C(C)(C)C)c2)c(F)cc1Oc1ccnc2ccc(OC3CCN(C)CC3)cc12 [Compound 115, N-(1-(tert-butyl)-1H-pyrazol-4-yl)-2-(2-fluoro-5-methyl-4-((6-((1-methyl-piperidin-4-yl)oxy)quinolin-4-yl)oxy)phenyl) acetamide]	< 2.5
Cc1cc(CC(=O)Nc2cnn(C(C)(C)C)c2)c(F)cc1Oc1ncnc2ccc(C(N)=O)cc12 [Compound 434, 4-(4-(2-((1-(tert-butyl)-1H-pyrazol-4-yl)amino)-2-oxoethyl)-5-fluoro-2-methylphenoxy)quinazoline-6-carboxamide]	3
Cc1cc(CC(=O)Nc2cnn(C(C)(C)C)c2)ccc1Oc1ncnc2ccc(OC3CCN(CC(F)F)CC3)cc12 [Compound 178, N-(1-(tert-butyl)-1H-pyrazol-4-yl)-2-(4-((6-((1-(2,2-difluoroethyl)piperidin-4-yl)oxy)quinazolin-4-yl)oxy)-3-methylphenyl) acetamide]	5
Cc1cc(CC(=O)Nc2cnn(C(C)(C)C)c2)ccc1Oc1ccnc2ccc(C(=O)N3CCNCC3)cc12 [Compound 207, N-(1-(tert-butyl)-1H-pyrazol-4-yl)-2-(3-methyl-4-((6-(piperazine-1-carbonyl)quinolin-4-yl)oxy)phenyl) acetamide]	< 2.5
Cc1cc(CC(=O)Nc2cnn(C(C)(C)C)c2)c(F)cc1Oc1ccnc2ccc(CC3CCNCC3)cc12 [Compound 408, N-(1-(tert-butyl)-1H-pyrazol-4-yl)-2-(2-fluoro-5-methyl-4-((6-(piperidin-4-ylmethyl)quinolin-4-yl)oxy)phenyl)acetamide]	< 2.5

Results, then the molecule that gave them:

IC50 [nM]	Compound
< 2.5	Cc1cc(CC(=O)Nc2cnn(C(C)(C)C)c2)ccc1Oc1ccnc2ccc(N3C(=O)CCC3C)cc12 (single isomer, unassigned) [Compound 291, N-(1-(tert-butyl)-1H-pyrazol-4-yl)-2-(3-methyl-4-((6-(2-methyl-5-oxopyrrolidin-1-yl)quinolin-4-yl)oxy)phenyl) acetamide]
< 2.5	Cc1cc(CC(=O)Nc2cnn(C(C)(C)C)c2)c(F)cc1Oc1ccnc2ccc(C(=O)N3CCC3)cc12 [Compound 369, 2-(4-((6-(azetidine-1-carbonyl)quinolin-4-yl)oxy)-2-fluoro-5-methyl-phenyl)-N-(1-(tert-butyl)-1H-pyrazol-4-yl)acetamide]
< 2.5	Cc1c(Oc2ccnc3ccc(S(=O)(=O)N4CCCC4)cc23)ccc(CC(=O)Nc2cnn(C(C)(C)C)c2)c1F [Compound 270, N-(1-(tert-butyl)-1H-pyrazol-4-yl)-2-(2-fluoro-3-methyl-4-((6-(pyrrolidin-1-ylsulfonyl)quinolin-4-yl)oxy)phenyl)acetamide]
< 2.5	Cc1cc(CC(=O)Nc2cnn(C(C)(C)C)c2)ccc1Oc1ccnc2ccc(S(=O)(=O)C3CCC3)cc12 [Compound 280, N-(1-(tert-butyl)-1H-pyrazol-4-yl)-2-(4-((6-(cyclobutylsulfonyl)quinolin-4-yl)oxy)-3-methylphenyl)acetamide]
< 2.5	Cc1c(Oc2ccnc3ccc(S(=O)(=O)C4CC(N)C4)cc23)ccc(CC(=O)Nc2cnn(C(C)(C)C)c2)c1F (single isomer, unassigned) [Compound 288, 2-(4-((6-((-3-aminocyclobutyl)sulfonyl)quinolin-4-yl)oxy)-2-fluoro-3-methylphenyl)-N-(1-(tert-butyl)-1H-pyrazol-4-yl)acetamide]
5.1	CC(C)(C)n1cc(NC(=O)Cc2ccc(Oc3ccnc4ccc(S(C)(=N)=O)cc34)cc2F)cn1 (single isomer, unassigned) [Compound 70, N-(1-(tert-butyl)-1H-pyrazol-4-yl)-2-(2-fluoro-4-((6-(S-methylsulfonimidoyl)quinolin-4-yl)oxy)phenyl)acetamide]
< 2.5	Cc1cc(CC(=O)Nc2cnn(C(C)(C)C)c2)ccc1Oc1ccnc2ccc(S(=O)(=O)CC3CC3)cc12 [Compound 205, N-(1-(tert-butyl)-1H-pyrazol-4-yl)-2-(4-((6-((cyclopropylmethyl)sulfonyl)quinolin-4-yl)oxy)-3-methylphenyl)acetamide]
< 2.5	Cc1c(Oc2ccnc3ccc(S(C)(=O)=O)cc23)ccc(CC(=O)Nc2cc(C(C)(C)C)n[nH]2)c1F [Compound 175, N-(5-(tert-butyl)-1H-pyrazol-3-yl)-2-(2-fluoro-3-methyl-4-((6-(methylsulfonyl)quinolin-4-yl)oxy)phenyl)acetamide]
< 2.5	Cc1cc(CC(=O)Nc2cnn(C(C)(C)C)c2)c(F)cc1Oc1ccnc2ccc(C(=O)N3CC(C#N)C3)cc12 [Compound 371, N-(1-(tert-butyl)-1H-pyrazol-4-yl)-2-(4-((6-(3-cyano-azetidine-1-carbonyl)quinolin-4-yl)oxy)-2-fluoro-5-methyl-phenyl) acetamide]
< 2.5	Cc1cc(CC(=O)Nc2cc(C3CC3)[nH]n2)ccc1Oc1ccnc2ccc(S(C)(=O)=O)cc12 [Compound 234, N-(5-cyclopropyl-1H-pyrazol-3-yl)-2-(3-methyl-4-((6-(methylsulfonyl)quinolin-4-yl)oxy)phenyl)acetamide]
< 2.5	Cc1cc(CC(=O)Nc2cc(C(C)(C)O)[nH]n2)ccc1Oc1ccnc2ccc(S(C)(=O)=O)cc12 [Compound 236, N-(5-(2-hydroxypropan-2-yl)-1H-pyrazol-3-yl)-2-(3-methyl-4-((6-(methylsulfonyl)quinolin-4-yl)oxy)phenyl)acetamide]
21.4	Cc1cc(Oc2ccnc3ccc(S(C)(=O)=O)cc23)c(C)cc1CC(=O)Nc1cnn(C(C)(C)C)c1 [Compound 446, N-(1-(tert-butyl)-1H-pyrazol-4-yl)-2-(2,5-dimethyl-4-((6-(methylsulfonyl)quinolin-4-yl)oxy)phenyl)acetamide]
< 2.5	Cc1cc(CC(=O)Nc2cnn(C(C)(C)C)c2)ccc1Oc1ccnc2ccc(OCC(C)O)cc12 (single isomer, unassigned) [Compound 225, N-(1-(tert-butyl)-1H-pyrazol-4-yl)-2-(4-((6-(2-hydroxy-propoxy)quinolin-4-yl)oxy)-3-methylphenyl) acetamide]
< 2.5	Cc1c(Oc2ccnc3ccc(S(=O)(=O)C4CC(O)C4)cc23)ccc(CC(=O)Nc2cnn(C(C)(C)C)c2)c1F (single isomer, unassigned) [Compound 285, N-(1-(tert-butyl)-1H-pyrazol-4-yl)-2-(2-fluoro-4-((6-((-3-hydroxycyclobutyl)sulfonyl)quinolin-4-yl)oxy)-3-methylphenyl)acetamide]
< 2.5	Cc1cc(CC(=O)Nc2cc(C(C)(C)CO)n[nH]2)ccc1Oc1ccnc2ccc(S(C)(=O)=O)cc12 [Compound 328, N-(5-(1-hydroxy-2-methylpropan-2-yl)-1H-pyrazol-3-yl)-2-(3-methyl-4-((6-(methylsulfonyl)quinolin-4-yl)oxy)phenyl)acetamide]
